Measured values as given in patent US5627270A, “Glycosylated steroid derivatives for transport across biological membranes and process for making and using same” (Trustees of Princeton University, priority 1994, dated 1997).
Entries after “also recorded” stand apart in the source; their conditions may differ. Like-named read-outs stand apart in the source and are kept apart here.

Legend:
[1] = tested on: DH2 cells (a mutant strain of E. coli K-12); assay type: cell-based; conditions: for EFFECT (enhancement of erythromycin): compound 20 mM; as to EFFECT (enhancement of erythromycin): key: --: erythromycin alone at 1.0 mM (baseline) and all lesser effects; +: enhancement relative to baseline; +++: significant enhancement relative to baseline
[2] = tested on: Crithidia fasciculate; assay: ASSAY IV: efficacy of antifungal agents on protozoa with and without added glycosylated steroid derivatives; assay type: cell-based
[3] = ASSAY II: proton transport across lipid membranes; assay type: biochemical
[4] = ASSAY I: leakage of carboxyfluorescein from vesicles; assay type: biochemical; conditions: for efficacy in permeabilizing phospholipid membranes: concentrations required for >50% leakage taken as measure
[5] = Plasma vancomycin after ileal co-administration in the rat
[6] = Plasma gentamicin after ileal co-administration in the rat; conditions: absence of 1
[7] = 0.000579 mM final concentration

Compound	% Decrease in Fluorescence ([3]; 0.0116 mM final concentration)	% increase in Fluorescence ([4]; 0.117 mM final concentration)	efficacy in permeabilizing phospholipid membranes [4]	% Decrease in Fluorescence ([3]; 0.00579 mM final concentration)	other results
C[C@H](CCC(=O)O)[C@H]1CC[C@H]2[C@@H]3[C@H](O[C@H]4O[C@H](CO)[C@@H](O)[C@H](O)[C@H]4O)C[C@@H]4C[C@H](O)CC[C@]4(C)[C@H]3C[C@H](O[C@H]3O[C@H](CO)[C@@H](O)[C@H](O)[C@H]3O)[C@]12C [3α-OH-cis-5,10-bis-α,α-glucosyl cholic acid K^+]	–	–	–	–	EFFECT (enhancement of erythromycin) ([1]; erythromycin 0.5 mM): +; EFFECT (enhancement of erythromycin) ([1]; erythromycin 1.0 mM): +
COC(=O)CC[C@@H](C)[C@H]1CC[C@H]2[C@@H]3[C@H](O)C[C@@H]4C[C@H](OC(=O)c5ccc(OC)cc5)CC[C@]4(C)[C@H]3C[C@H](O)[C@]12C [CDE, 3α-O-p-methoxybenzoyl-cis-5,10-cholic acid methyl ester, reference compound]	–	–	–	–	enhancing effect on erythromycin ([1]; lower concentrations (Table V)): does not function as an enhancer; enhancement of antifungal efficacy ([2]; with 24-TC (thiacholestanol)): lack of an enhancing effect; also recorded: not observed to act as an enhancer
C[C@H](CCC(=O)O)[C@H]1CC[C@H]2[C@@H]3[C@H](O)C[C@@H]4C[C@H](O)CC[C@]4(C)[C@H]3CC[C@]12C [Chenodeoxycholic Acid, reference compound]	8.2%	17.7%	also permeabilize membranes in this assay, although at much higher concentrations	–	enhancing effect on erythromycin ([1]; test compound 20 mM): did not have a detectable effect; % increase in Fluorescence ([4]; 1.17 mM final concentration): 80.9%
C[C@H](CCC(=O)O)[C@H]1CC[C@H]2[C@@H]3[C@H](O)C[C@@H]4C[C@H](O)CC[C@]4(C)[C@H]3C[C@H](O)[C@]12C [Cholic Acid, reference compound]	–	0%	also permeabilize membranes in this assay, although at much higher concentrations	–	enhancing effect on erythromycin ([1]; test compound 20 mM): did not have a detectable effect; % Decrease in Fluorescence [3]: 1.0%; % increase in Fluorescence ([4]; 2.341 mM final concentration): 59.1%
C[C@H](CCC(=O)O)[C@H]1CC[C@H]2[C@@H]3CC[C@@H]4C[C@H](O)CC[C@]4(C)[C@H]3C[C@H](O)[C@]12C [Deoxycholic Acid, reference compound]	–	–	also permeabilize membranes in this assay, although at much higher concentrations	–	EFFECT (enhancement of erythromycin) ([1]; erythromycin 0.5 mM): +; EFFECT (enhancement of erythromycin) ([1]; erythromycin 1.0 mM): +; enhancing effect on erythromycin ([1]; test compound 20 mM): showed any effect
CCOC(=O)O[C@@H]1CC[C@@]2(C)[C@@H](C1)C[C@@H](O[C@H]1O[C@H](CO)[C@@H](O)[C@H](O)[C@H]1O)[C@@H]1[C@@H]2C[C@H](O[C@H]2O[C@H](CO)[C@@H](O)[C@H](O)[C@H]2O)[C@]2(C)[C@@H]([C@H](C)CCC(=O)OC)CC[C@@H]12 [Entry 1, 3α-ethylcarbonate-cis-5,10-bis-α,α-7,12-glucosyl cholic acid methyl ester]	7.6%	0%	–	4.3%	–
C[C@H](CCC(=O)O)[C@H]1CC[C@H]2[C@@H]3[C@H](O[C@H]4O[C@H](CO)[C@@H](O)[C@H](O)[C@H]4O)C[C@@H]4C[C@H](O)CC[C@]4(C)[C@H]3C[C@H](O[C@H]3O[C@H](CO)[C@@H](O)[C@H](O)[C@H]3O)[C@]12C [Entry 3, 3α-hydroxy-cis-5,10-bis-α,α-7,12-glucosyl cholic acid]	35.4%	–	–	21.0%	% increase in Fluorescence ([4]; 2.34 mM final concentration): 0%
COC(=O)CC[C@@H](C)[C@H]1CC[C@H]2[C@@H]3[C@H](O[C@H]4O[C@H](CO)[C@@H](O)[C@H](O)[C@H]4O)C[C@@H]4C[C@H](O)CC[C@]4(C)[C@H]3C[C@H](O[C@H]3O[C@H](CO)[C@@H](O)[C@H](O)[C@H]3O)[C@]12C [Entry 4, 3α-hydroxy-cis-5,10-bis-α,α-7,12-glucosyl cholic acid methyl ester]	12.3%	0%	–	7.89%	–
C[C@H](CCC(=O)NC(Cc1c[nH]c2ccccc12)C(=O)O)[C@H]1CC[C@H]2[C@@H]3[C@H](O[C@H]4O[C@H](CO)[C@@H](O)[C@H](O)[C@H]4O)C[C@@H]4C[C@H](O)CC[C@]4(C)[C@H]3C[C@H](O[C@H]3O[C@H](CO)[C@@H](O)[C@H](O)[C@H]3O)[C@]12C (stereo partly drawn) [Entry 5, 3α-hydroxy-cis-5,10-bis-α,α-7,12-glucosyl-25-tryptophanyl cholic acid]	26.1%	57.3%	–	19.4%	–
COC(=O)CC[C@@H](C)[C@H]1CC[C@H]2[C@@H]3[C@H](O[C@H]4O[C@H](CO)[C@@H](O)[C@H](O)[C@H]4O)C[C@@H]4C[C@H](OC(=O)c5ccccc5)CC[C@]4(C)[C@H]3C[C@H](O[C@H]3O[C@H](CO)[C@@H](O)[C@H](O)[C@H]3O)[C@]12C [Entry 7, 3α-O-benzoyl-cis-5,10-bis-α,α-7,12-glucosyl cholic acid methyl ester]	19.8%	89.1%	the most effective glycosylated steroids tested	15.2%	–
COC(=O)CC[C@@H](C)[C@H]1CC[C@H]2[C@@H]3[C@H](O[C@H]4O[C@H](CO)[C@@H](O)[C@H](O)[C@H]4O)C[C@@H]4C[C@H](OC(=O)c5ccc(OC)cc5)CC[C@]4(C)[C@H]3C[C@H](O[C@H]3O[C@H](CO)[C@@H](O)[C@H](O)[C@H]3O)[C@]12C [Entry 8, 3α-O-p-methoxybenzoyl-cis-5,10-bis-α,α-7,12-glucosyl cholic acid methyl ester]	32.2%	89.1%	the most effective glycosylated steroids tested	20.6%	EFFECT (clearing) ([1]; compound 0.001 mM, erythromycin 0.01 mM): +; EFFECT (clearing) ([1]; compound 0.01 mM, erythromycin 0.01 mM): +; EFFECT (clearing) ([1]; compound 0.1 mM, erythromycin 0.01 mM): +; EFFECT (clearing) ([1]; compound 0.1 mM, erythromycin 0.1 mM): +; EFFECT (enhancement of erythromycin) ([1]; erythromycin 0.5 mM): +++; EFFECT (enhancement of erythromycin) ([1]; erythromycin 1.0 mM): +++; enhancing effect on erythromycin ([1]; lower concentrations (Table V)): acts as an enhancer at very low concentrations; enhancing effect on erythromycin ([1]; test compound 20 mM): the best "enhancer" in this assay; enhancement of antifungal efficacy ([2]; with 10-TSA (thiastearic acid), listed as CME): enhancing effect; also recorded: enhances the efficacy of 10-TSA dramatically; enhancement of antifungal efficacy ([2]; with 24-TC (thiacholestanol), listed as CME): enhancing effect; also recorded: enhance the efficacy of 24-TC; efficacy in permeabilizing phospholipid membranes ([4]; listed as CME): a good membrane permeabilizing agent
COC(=O)CC[C@@H](C)[C@H]1CC[C@H]2[C@@H]3[C@H](O[C@@H]4O[C@H](CO)[C@@H](O)[C@H](O)[C@H]4O)C[C@H]4C[C@H](OC(=O)c5ccccc5)CC[C@]4(C)[C@H]3C[C@H](O[C@@H]3O[C@H](CO)[C@@H](O)[C@H](O)[C@H]3O)[C@]12C [Entry 9, 3α-O-benzoyl-trans-5,10-bis-β,β-7,12-glucosyl cholic acid methyl ester]	43.0%	24.5%	–	27.4%	–
C[C@H](CCC(=O)O)[C@H]1CC[C@H]2[C@@H]3[C@H](O[C@@H]4O[C@H](CO)[C@@H](O)[C@H](O)[C@H]4O)C[C@@H]4C[C@H](O)CC[C@]4(C)[C@H]3C[C@H](O[C@@H]3O[C@H](CO)[C@@H](O)[C@H](O)[C@H]3O)[C@]12C [Entry 10, 3α-hydroxy-cis-5,10-bis-β,β-7,12-glucosyl cholic acid]	–	0%	–	–	–
COC(=O)CC[C@@H](C)[C@H]1CC[C@H]2[C@@H]3[C@H](O[C@H]4O[C@H](CO)[C@@H](O)[C@H](O)[C@H]4O)C[C@H]4C[C@H](OC(=O)c5ccccc5)CC[C@]4(C)[C@H]3C[C@H](O[C@H]3O[C@H](CO)[C@@H](O)[C@H](O)[C@H]3O)[C@]12C [Entry 11, 3α-O-benzoyl-trans-5,10-bis-α,α-7,12-glucosyl cholic acid methyl ester]	22.0%	98%	the most effective glycosylated steroids tested	–	EFFECT (enhancement of erythromycin) ([1]; erythromycin 0.5 mM): +; EFFECT (enhancement of erythromycin) ([1]; erythromycin 1.0 mM): +; % Decrease in Fluorescence ([3]; 0.00585 mM final concentration): 14.7%
C[C@H](CCC(=O)O)[C@H]1CC[C@H]2[C@@H]3[C@H](O[C@@H]4O[C@H](CO)[C@@H](O)[C@H](O)[C@H]4O)C[C@H]4C[C@H](O)CC[C@]4(C)[C@H]3C[C@H](O[C@@H]3O[C@H](CO)[C@@H](O)[C@H](O)[C@H]3O)[C@]12C [Entry 13, 3α-hydroxy-trans-5,10-bis-β,β-7,12-glucosyl cholic acid]	70.6%	0%	–	35.2%	% Decrease in Fluorescence [3, 7]: 2.8%
COC(=O)CC[C@@H](C)[C@H]1CC[C@H]2[C@@H]3[C@H](O)C[C@@H]4C[C@H](O)CC[C@]4(C)[C@H]3C[C@H](O)[C@]12C [Methyl Cholate, reference compound]	5.4%	25.4%	–	–	–
CN[C@H](CC(C)C)C(=O)N[C@H]1C(=O)N[C@@H](CC(N)=O)C(=O)N[C@H]2C(=O)N[C@H]3C(=O)N[C@H](C(=O)N[C@H](C(=O)O)c4cc(O)cc(O)c4-c4cc3ccc4O)[C@H](O)c3ccc(c(Cl)c3)Oc3cc2cc(c3O[C@@H]2O[C@H](CO)[C@@H](O)[C@H](O)[C@H]2O[C@H]2C[C@](C)(N)[C@H](O)[C@H](C)O2)Oc2ccc(cc2Cl)[C@H]1O [Vancomycin]	–	–	–	–	clearance from the circulation ([5]; ileum versus IV): cleared more slowly from the circulation when administered via the ileum than via IV; Cmax ([5]; rat, in vivo, 5 mg): 5000 to 10000 ng/mL
Gramicidin [reference compound]	–	–	–	87.2%	% Decrease in Fluorescence [3, 7]: 81.6%
gentamicin	–	–	–	–	ileal bioavailability of gentamicin [6]: 10.7%; plasma concentrations of gentamicin ([6]; ileal, 5 mg antibiotic): 1000 to 7000 ng/mL
